Data from ChEMBL document CHEMBL1201862, “PubChem BioAssay data set” (2004).
Calls of active or inactive are those of the source.

Experiments:
Coagulation factor XII = target: T1, Coagulation factor XII (Homo sapiens, UniProt P00748); type: functional;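 further: activated factor XIIa alpha cleaving a fluorogenic AMC peptide substrate; inhibitor potency from loss of enzyme activity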
T1 sequence (P00748 whole entry): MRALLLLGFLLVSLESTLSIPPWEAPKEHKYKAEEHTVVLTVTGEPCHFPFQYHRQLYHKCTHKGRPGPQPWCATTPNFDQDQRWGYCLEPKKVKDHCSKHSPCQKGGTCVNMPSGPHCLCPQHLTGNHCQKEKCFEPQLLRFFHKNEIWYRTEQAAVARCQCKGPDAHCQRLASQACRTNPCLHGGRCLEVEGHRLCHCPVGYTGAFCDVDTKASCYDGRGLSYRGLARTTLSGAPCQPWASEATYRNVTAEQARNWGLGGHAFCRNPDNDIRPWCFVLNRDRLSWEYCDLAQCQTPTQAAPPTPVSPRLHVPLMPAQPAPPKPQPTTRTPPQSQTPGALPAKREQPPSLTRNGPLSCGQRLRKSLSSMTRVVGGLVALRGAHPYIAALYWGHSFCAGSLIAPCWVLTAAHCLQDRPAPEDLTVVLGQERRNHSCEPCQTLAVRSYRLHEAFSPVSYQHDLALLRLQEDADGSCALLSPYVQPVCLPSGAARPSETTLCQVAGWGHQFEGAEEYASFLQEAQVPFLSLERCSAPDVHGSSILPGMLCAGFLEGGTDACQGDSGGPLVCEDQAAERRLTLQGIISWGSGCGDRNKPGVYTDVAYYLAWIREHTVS

HeLa = experiment: HeLa cell cytotoxicity, dose response, cytotoxicity control for MITF activator project, CellTiter-Glo luminescence, cherry-pick samples (AID 540259); type: functional, cell-based; conditions: Homo sapiens
[1] = target: Glucose-6-phosphate 1-dehydrogenase (Homo sapiens, UniProt P11413); experiment: human G6PD enzyme inhibitors, dose response, selectivity assay for P. falciparum G6PD inhibitor project, biochemical, fluorescence (AID 504792); type: functional
Chain of Glucose-6-phosphate 1-dehydrogenase (P11413 whole entry): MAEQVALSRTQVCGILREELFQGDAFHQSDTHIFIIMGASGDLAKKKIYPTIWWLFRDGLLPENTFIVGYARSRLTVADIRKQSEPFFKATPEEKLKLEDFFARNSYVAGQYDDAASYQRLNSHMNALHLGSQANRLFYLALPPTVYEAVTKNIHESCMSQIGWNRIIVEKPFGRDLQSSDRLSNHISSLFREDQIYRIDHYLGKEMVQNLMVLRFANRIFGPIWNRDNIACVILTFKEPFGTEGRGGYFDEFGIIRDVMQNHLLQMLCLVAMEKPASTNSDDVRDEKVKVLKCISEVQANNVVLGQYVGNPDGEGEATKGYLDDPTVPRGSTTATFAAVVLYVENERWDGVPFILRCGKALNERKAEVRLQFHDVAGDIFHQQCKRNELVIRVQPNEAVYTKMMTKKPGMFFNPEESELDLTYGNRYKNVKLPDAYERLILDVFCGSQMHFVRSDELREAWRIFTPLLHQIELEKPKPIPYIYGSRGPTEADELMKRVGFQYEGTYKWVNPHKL

Streptokinase A = target: T2, Streptokinase A (Streptococcus pyogenes serotype M1, UniProt P10520); experiment: S. pyogenes streptokinase expression inhibitors, potency, dose response, plasminogen activation absorbance, OD405 (AID 1914); type: functional, Streptococcus pyogenes M1 GAS;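 further: secreted streptokinase activity via plasminogen activation per viability signal from cell pellet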
T2 sequence (P10520 whole entry): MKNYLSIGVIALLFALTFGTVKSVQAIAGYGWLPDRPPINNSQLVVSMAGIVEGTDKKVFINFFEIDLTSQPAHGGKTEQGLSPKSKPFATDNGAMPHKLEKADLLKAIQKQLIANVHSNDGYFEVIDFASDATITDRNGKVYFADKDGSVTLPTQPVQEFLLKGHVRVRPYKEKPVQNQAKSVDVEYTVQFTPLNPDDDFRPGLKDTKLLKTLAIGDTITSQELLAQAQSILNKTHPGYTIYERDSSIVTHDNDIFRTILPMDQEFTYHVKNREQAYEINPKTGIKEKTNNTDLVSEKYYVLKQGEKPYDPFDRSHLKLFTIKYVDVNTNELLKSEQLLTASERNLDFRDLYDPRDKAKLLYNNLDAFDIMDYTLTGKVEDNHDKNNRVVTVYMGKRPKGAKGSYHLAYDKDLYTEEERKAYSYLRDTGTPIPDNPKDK

[2] = system: Streptococcus sp. 'group A'; experiment: growth inhibition of control SK(-) GAS strain, dose response, counter-screen for streptokinase expression inhibitor project, luminescence, kanamycin, BacTiterGlo, confirmation (AID 1900); type: functional, organism-based
Nonstructural protein 1 = Nonstructural protein 1 (Influenza A virus, UniProt Q194T2); type: functional, Influenza A virus (A/California/07/2009(H1N1))
Chain of Nonstructural protein 1 (Q194T2 whole entry): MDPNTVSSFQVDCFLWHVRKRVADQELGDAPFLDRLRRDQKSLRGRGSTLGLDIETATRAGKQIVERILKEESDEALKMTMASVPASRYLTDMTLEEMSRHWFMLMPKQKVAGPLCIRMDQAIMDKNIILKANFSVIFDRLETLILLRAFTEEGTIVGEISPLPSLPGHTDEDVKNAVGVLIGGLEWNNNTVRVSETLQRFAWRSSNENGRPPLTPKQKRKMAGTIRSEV

Streptococcus = experiment: Group A Streptococcus viability loss, dose response, counter-screen for streptokinase expression inhibitor project, luminescence, BacTiterGlo (AID 1915); type: functional, organism-based;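 further: potency for reduction of bacterial viability or growth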
[3] = Luminescence Cell-Based Dose Response HTS to Identify Inhibitors of 5'UTR Stem-Loop Driven Prion Protein mRNA Translation in H4 Neuroglioblastoma Cells. [Related pubchem assays: 1827 (Project Summary), 1813 (Primary HTS)]; type: functional
[4] = inhibitors of SNCA 5'UTR-driven reporter translation, confirmation, H4 neuroglioma cells, luminescence (AID 1988); type: functional, cell-based
[5] = inhibitors of firefly luciferase expression or activity, dose response, H4 neuroglioma cells, luminescence (AID 1990); type: functional, cell-based
[6] = target: T3, Sentrin-specific protease 1 (Homo sapiens, UniProt Q9P0U3); experiment: Dose response confirmation of small molecule inhibitors of the catalytic domain of the SUMO protease, SENP1 in a FRET assay.; type: functional; conditions: read-out: IC50_Mean
T3 sequence (Q9P0U3 whole entry): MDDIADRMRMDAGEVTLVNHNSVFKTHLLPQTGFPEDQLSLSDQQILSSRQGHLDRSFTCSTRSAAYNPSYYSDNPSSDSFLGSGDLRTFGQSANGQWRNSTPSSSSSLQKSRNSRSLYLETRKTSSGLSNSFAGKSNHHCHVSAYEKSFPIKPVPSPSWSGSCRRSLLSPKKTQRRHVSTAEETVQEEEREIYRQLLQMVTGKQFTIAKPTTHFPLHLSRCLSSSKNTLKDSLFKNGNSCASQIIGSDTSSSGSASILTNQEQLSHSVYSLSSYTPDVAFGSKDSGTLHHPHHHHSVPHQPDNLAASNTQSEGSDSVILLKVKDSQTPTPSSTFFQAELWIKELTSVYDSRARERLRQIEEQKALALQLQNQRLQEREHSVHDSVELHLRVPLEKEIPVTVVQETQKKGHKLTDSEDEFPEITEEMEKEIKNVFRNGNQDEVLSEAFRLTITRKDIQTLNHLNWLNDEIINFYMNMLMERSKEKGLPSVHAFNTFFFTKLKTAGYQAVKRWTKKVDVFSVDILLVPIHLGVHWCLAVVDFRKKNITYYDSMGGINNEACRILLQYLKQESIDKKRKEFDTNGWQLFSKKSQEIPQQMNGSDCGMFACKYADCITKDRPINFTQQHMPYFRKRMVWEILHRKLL

[7] = target: T4, Endoribonuclease toxin MazF (Escherichia coli K-12, UniProt P0AE70); experiment: MazF toxin RNase activators, dose response, biochemical, fluorescence, single-stranded RNA substrate, uHTS hits (AID 588481); type: functional
T4 sequence (P0AE70 whole entry): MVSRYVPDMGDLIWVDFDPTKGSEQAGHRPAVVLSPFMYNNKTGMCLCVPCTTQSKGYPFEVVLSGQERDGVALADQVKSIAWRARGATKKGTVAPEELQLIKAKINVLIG

Genome polyprotein = Genome polyprotein (dengue virus type 2, UniProt P29990); experiment: Dengue-2 NS5 methyltransferase inhibitors, primary screen, biochemical, confirmation dose response (AID 588689); type: functional
Chain of Genome polyprotein (P29990 2492-3391 limits assumed): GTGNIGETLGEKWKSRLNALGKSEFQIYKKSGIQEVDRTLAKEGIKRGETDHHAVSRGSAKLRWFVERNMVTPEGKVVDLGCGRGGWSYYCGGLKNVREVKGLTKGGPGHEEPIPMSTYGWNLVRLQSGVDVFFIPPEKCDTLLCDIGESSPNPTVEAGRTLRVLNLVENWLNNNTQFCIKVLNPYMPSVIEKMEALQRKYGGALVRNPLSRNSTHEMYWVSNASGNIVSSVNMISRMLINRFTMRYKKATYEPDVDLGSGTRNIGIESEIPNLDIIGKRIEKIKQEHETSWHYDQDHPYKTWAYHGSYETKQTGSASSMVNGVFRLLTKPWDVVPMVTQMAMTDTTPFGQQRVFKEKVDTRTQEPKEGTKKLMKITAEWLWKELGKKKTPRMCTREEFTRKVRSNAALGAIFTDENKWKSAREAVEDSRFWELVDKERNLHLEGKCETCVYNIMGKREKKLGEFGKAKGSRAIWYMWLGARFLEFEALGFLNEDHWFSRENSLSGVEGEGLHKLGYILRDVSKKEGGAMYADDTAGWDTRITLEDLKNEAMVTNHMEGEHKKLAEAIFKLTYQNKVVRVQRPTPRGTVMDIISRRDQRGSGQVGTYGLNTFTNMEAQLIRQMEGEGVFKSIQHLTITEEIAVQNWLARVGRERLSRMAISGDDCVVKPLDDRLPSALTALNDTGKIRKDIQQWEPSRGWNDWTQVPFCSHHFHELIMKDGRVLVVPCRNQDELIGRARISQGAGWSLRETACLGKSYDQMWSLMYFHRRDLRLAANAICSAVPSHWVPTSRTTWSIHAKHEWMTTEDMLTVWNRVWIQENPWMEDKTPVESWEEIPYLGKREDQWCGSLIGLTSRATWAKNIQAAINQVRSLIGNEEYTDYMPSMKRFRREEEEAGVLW

[8] = target: T4, Endoribonuclease toxin MazF; experiment: fluorescent RNA oligo signal without MazF, dose response, counter-screen for MazEF activator project, biochemical, fluorescence, single-stranded RNase substrate (AID 588502); type: functional
[9] = target: T3, Sentrin-specific protease 1; experiment: potency of human SENP1 inhibitors, dose response, biochemical, kinetic FRET (AID 651697); type: functional; conditions: read-out: IC50_Mean
[10] = target: T5, Corticotropin-releasing factor receptor 2/Corticotropin-releasing factor-binding protein (Homo sapiens, UniProt P24387+Q13324); experiment: activators of CRF receptor 2 with binding protein – uHTS hits, confirmation (AID 602473); type: functional; conditions: read-out: EC50_Mean
T5 sequence (Q13324 whole entry): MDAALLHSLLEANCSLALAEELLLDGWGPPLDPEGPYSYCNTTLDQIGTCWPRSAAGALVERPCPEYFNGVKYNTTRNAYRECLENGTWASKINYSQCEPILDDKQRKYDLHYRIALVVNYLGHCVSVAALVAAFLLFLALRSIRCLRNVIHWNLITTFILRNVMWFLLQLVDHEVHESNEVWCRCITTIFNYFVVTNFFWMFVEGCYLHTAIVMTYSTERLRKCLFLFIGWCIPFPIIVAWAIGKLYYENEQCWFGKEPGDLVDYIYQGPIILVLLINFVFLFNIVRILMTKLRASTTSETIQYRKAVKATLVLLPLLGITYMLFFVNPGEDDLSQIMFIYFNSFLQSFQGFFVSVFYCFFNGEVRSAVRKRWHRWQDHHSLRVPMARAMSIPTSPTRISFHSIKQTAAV
T5 sequence (P24387 whole entry): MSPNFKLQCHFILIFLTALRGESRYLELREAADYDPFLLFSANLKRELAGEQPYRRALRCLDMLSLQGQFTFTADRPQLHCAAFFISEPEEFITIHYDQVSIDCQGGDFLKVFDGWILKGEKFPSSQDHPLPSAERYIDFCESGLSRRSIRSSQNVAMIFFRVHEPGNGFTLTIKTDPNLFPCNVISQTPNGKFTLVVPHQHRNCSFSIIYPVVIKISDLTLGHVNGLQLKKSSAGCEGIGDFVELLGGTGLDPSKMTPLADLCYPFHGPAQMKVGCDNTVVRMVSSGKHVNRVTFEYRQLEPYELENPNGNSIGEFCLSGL

Cc1cc(Br)c2[nH]c3c(c2c1)CCCC3=O
IC50 (Coagulation factor XII): > 50 µM (inactive)

Cc1cccc(C(=O)Oc2ccc(/C=N/O)cc2)c1
AC50 (HeLa): 41 µM (active)

COc1cc(/C=N/Nc2nncn2N)ccc1OCc1c(C)no[n+]1[O-]
IC50 [1]: 56.3 µM (inactive)

CC1(C)Oc2ccc3ccc(=O)oc3c2C(/C=N/NC(N)=S)=C1O
EC50 (Streptokinase A): > 150 µM (not active) | EC50 [2]: 3.2 µM (active) | IC50 (Nonstructural protein 1): 26.6 µM (active) | EC50 (Streptococcus): 22.8 µM (active)

COc1ccc(OC)c(/C=N/N(C)c2ccccc2)c1
AC50 (HeLa): 44.7 µM (active)

Cc1ccsc1/C=N/NC(=O)Nc1ccccc1
AC50 (HeLa): 60.6 µM (active)

CC1(C)OC(=C/C=N/c2ccc(Cl)cc2)OC1(C)C
EC50 [3]: > 120 µM (not active) | EC50 [4]: > 120 µM (not active) | IC50 (Coagulation factor XII): > 50 µM (inactive) | EC50 [5]: > 120 µM (not active)

Cn1c(=O)c2[nH]c(-c3ccccc3)c(O)c2n(C)c1=O
IC50 [6]: 5.27 µM (active) | EC50 [7]: 33.8 µM (inactive) | IC50 (Genome polyprotein): 18.5 µM (active) | IC50 [1]: > 80 µM (inactive) | EC50 [8]: 23.3 µM (inactive) | IC50 [9]: 5.99 µM (active) | EC50 [10]: > 53 µM (inactive)
